Test results as given in patent US6767907B2, “4-aryl-1-(indanmethyl dihydrobenzofuranmethyl or dihydrobenzothiophenemethyl) piperidines tetrahydropyridines or piperazines” (H. Lundbeck A/S, priority 1994, dated 2004).
Read-outs that look alike come from different tables or passages of the source.

Experiments:
[1] = target: T1, 5-HT2A receptors (Rattus norvegicus, UniProt P14842); assay: Inhibition of 3H-Ketanserin binding to 5-HT2 receptors in rat cortex in vitro; conditions: 3H-Ketanserin 0.5 nM; for IC50: membranes from rat cortex, read-out: 3H Ketanserin (5-HT2A) binding, IC50
T1 construct: 5-HT2A receptors in membranes from rat is determined in vitro; from tissue; host or cells: rat cortex membranes
Method: Inhibition of ^3H-Ketanserin Binding to 5-HT2 Receptors in Rat Cortex in vitro.
By this method the inhibition by drugs of the binding of ^3H-Ketanserin (0.5 nM) to 5-HT2A receptors in membranes from rat is determined in vitro .

[2] = target: T2, 5-HT1A receptors (Rattus norvegicus, UniProt P19327); assay: Inhibition of 3H-8-OH-DPAT binding to serotonin 5-HT1A receptors in rat brain in vitro; conditions: for inhibition at 0.1 µM: read-out: 3H 8-OH DPAT (5-HT1A) binding, % inhibition of binding at 100 nM, at 100 nM, rat brain membranes
T2 construct: 5-HT1A receptors in membranes from rat brain minus cerebellum; from tissue; host or cells: rat brain minus cerebellum, membranes
T2 sequence (P19327 1-422): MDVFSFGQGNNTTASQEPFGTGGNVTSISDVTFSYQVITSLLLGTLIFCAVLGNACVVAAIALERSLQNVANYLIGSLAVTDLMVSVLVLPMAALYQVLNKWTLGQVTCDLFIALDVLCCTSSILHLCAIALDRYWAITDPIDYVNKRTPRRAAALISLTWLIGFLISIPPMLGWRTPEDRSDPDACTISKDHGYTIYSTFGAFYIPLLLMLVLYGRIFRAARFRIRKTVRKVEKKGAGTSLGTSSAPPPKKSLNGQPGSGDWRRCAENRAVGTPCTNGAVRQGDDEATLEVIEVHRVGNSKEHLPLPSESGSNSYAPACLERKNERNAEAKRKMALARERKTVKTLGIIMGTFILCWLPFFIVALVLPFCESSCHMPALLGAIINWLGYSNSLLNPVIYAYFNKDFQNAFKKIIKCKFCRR
Method: By this method the inhibition by drugs of the binding of the 5-HT1A agonist ^3H-8-OH-DPAT (1 nM) to 5-HT1A receptors in membranes from rat brain minus cerebellum is determined in vitro . Accordingly, this is a test for affinity for the 5-HT1A receptor. The test is performed as described by Hyttel et al., Drug. Dev. Res., 1988, 15, 389-404.

[3] = 3H-8-OH-DPAT 1 nM, membranes from rat brain minus cerebellum, read-out: 3H 8-OH DPAT (5-HT1A) binding, IC50

T1 sequence (P14842 whole entry): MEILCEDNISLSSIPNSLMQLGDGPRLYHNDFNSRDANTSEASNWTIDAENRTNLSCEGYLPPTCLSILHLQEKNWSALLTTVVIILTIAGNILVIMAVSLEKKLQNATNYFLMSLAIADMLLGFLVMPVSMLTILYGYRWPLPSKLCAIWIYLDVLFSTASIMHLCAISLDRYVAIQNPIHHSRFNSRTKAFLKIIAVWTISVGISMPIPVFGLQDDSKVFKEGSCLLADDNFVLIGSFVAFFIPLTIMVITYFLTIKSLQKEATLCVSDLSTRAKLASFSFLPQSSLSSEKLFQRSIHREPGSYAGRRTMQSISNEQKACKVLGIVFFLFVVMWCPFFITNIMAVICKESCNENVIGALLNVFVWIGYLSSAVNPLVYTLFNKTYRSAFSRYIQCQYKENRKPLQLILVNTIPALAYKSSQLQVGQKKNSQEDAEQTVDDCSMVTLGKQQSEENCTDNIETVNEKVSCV

Structure (SMILES) | melting point [°C] | IC50 [1] [nM] | IC50 [2, 3] [nM] | inhibition at 0.1 µM ([2]; 3H-8-OH-DPAT 1 nM) [%] | IC50 [2] [nM] | inhibition at 0.1 µM ([1]; read-out: 3H Ketanserin (5-HT2A) binding, % inhibition of binding at 100 nM, at 100 nM, rat cortex membranes) [%]
Nc1ccc2c(c1)C(CN1CCN(c3ccc(Cl)c(Cl)c3)CC1)CC2 (stereo not drawn) [Compound 2h, 1-(6-Aminoindan-1-ylmethyl)-4-(3,4-dichlorophenyl)piperazine] | 156 to 158 | 4.1 |  | 19 |  | 
CC(=O)Nc1ccc2c(c1)C(CN1CCC(c3ccc(F)cc3)CC1)CC2 (stereo not drawn) [Compound 4a, 1-(6-Acetylaminoindan-1-ylmethyl)-4-(4-fluorophenyl)piperidine] | 159 to 162 | 4 | 11 |  |  | 
CC(=O)Nc1ccc2c(c1)C(CN1CCN(c3ccc(F)cc3)CC1)CC2 (stereo not drawn) [Compound 4b, 1-(6-Acetylaminoindan-1-ylmethyl)-4-(4-fluorophenyl)piperazine] | 179 to 187 | 2.9 | 21 |  |  | 
CC(=O)Nc1ccc2c(c1)C(CN1CC=C(c3ccc(F)cc3)CC1)CC2 (stereo not drawn) [Compound 4h, 1-(6-Acetylaminoindan-1-ylmethyl)-4-(4-fluorophenyl)-1,2,3,6-tetrahydropyridine] | 156 to 161 | 2.8 | 11 |  |  | 
CC(=O)Nc1ccc2c(c1)C(CN1CC=C(c3c[nH]c4cc(Cl)ccc34)CC1)CC2 (stereo not drawn) [Compound 11e, 3-[1-(6-Acetylaminoindan-1-ylmethyl)-1,2,3,6-tetrahydropyridin-4-yl]-6-chloro-1H-indole] |  | 130 |  |  | 27 | 
CC(=O)Nc1ccc2c(c1)C(CN1CCC(c3c[nH]c4cc(Cl)ccc34)CC1)CC2 (stereo not drawn) [Compound 11f, 3-[1-(6-Acetylaminoindan-1-ylmethyl)piperidin-4-yl]-6-chloro-1H-indole] |  | 21 | 8 |  |  | 
CC(=O)Nc1ccc2c(c1)C(CN1CC=C(c3c[nH]c4ccc(Cl)cc34)CC1)CC2 (stereo not drawn) [Compound 11g, 3-[1-(6-Acetylaminoindan-1-ylmethyl)-1,2,3,6-tetrahydropyridin-4-yl]-5-chloro-1H-indole] |  | 180 |  |  | 26 | 
CC(=O)Nc1ccc2c(c1)C(CN1CC=C(c3cn(C)c4cc(Cl)ccc34)CC1)CC2 (stereo not drawn) [Compound 15a, 3-[1-(6-Acetylaminoindan-1-ylmethyl)-1,2,3,6-tetrahydropyridin-4-yl]-6-chloro-1-methyl-1H-indole] | 189 to 193 |  | 91 |  |  | 25
CC(=O)Nc1ccc2c(c1)C(CN1CCC(c3cn(C)c4cc(Cl)ccc34)CC1)CC2 (stereo not drawn) [Compound 15b, 3-[1-(6-Acetylaminoindan-1-ylmethyl)piperidin-4-yl]-6-chloro-1-m ethyl-1H-indole] |  | 300 |  | 25 |  | 

Second part, led by results:

melting point [°C] | IC50 [1] [nM] | IC50 [2, 3] [nM] | Structure (SMILES) | inhibition at 0.1 µM ([2]; 3H-8-OH-DPAT 1 nM) [%] | IC50 [2] [nM] | inhibition at 0.1 µM ([1]; read-out: 3H Ketanserin (5-HT2A) binding, % inhibition of binding at 100 nM, at 100 nM, rat cortex membranes) [%]
140 to 142 | 2.3 | 28 | CC(=O)Nc1ccc2c(c1)C(CN1CCC(c3ccc(F)cc3)CC1)CS2 (stereo not drawn) [Compound 4c, 1-(5-Acetylamino-2,3-dihydrobenzothiophen-3-ylmethyl)-4-(4-fluorophenyl)piperidine] |  |  | 
191 to 194 | 5 | 12 | CC(=O)Nc1ccc2c(c1)C(CN1CCN(c3ccc(Cl)cc3)CC1)CC2 (stereo not drawn) [Compound 4d, 1-(6-Acetylaminoindan-1-ylmethyl)-4-(4-chlorophenyl)piperazine] |  |  | 
176 to 178 | 5 | 38 | CC(=O)Nc1ccc2c(c1)C(CN1CCN(c3cccc(Cl)c3)CC1)CC2 (stereo not drawn) [Compound 4e, 1-(6-Acetylaminoindan-1-ylmethyl)-4-(3-chlorophenyl)piperazine] |  |  | 
152 to 155 | 2.1 | 500 | CS(=O)(=O)Nc1ccc2c(c1)C(CN1CCC(c3ccc(F)cc3)CC1)CC2 (stereo not drawn) [Compound 4i, 4-(4-Fluorophenyl)-1-(6-methansulfonylaminoindan-1-ylmethyl)piperidine] |  |  | 
134 to 140 | 15 | 45 | O=C(Nc1ccc2c(c1)C(CN1CCC(c3ccc(F)cc3)CC1)CC2)C1CC1 (stereo not drawn) [Compound 4j, 1-(6-Cyclopropylcarbonylaminoindan-1-ylmethyl)-4-(4-fluorophenyl)piperidine] |  |  | 
177 to 178 | 30 | 240 | O=C(Nc1ccc2c(c1)C(CN1CCC(c3ccc(F)cc3)CC1)CC2)C1CCCC1 (stereo not drawn) [Compound 4k, 1-(6-Cyclopentylcarbonylaminoindan-1-ylmethyl)-4-(4-fluorophenyl)piperidine] |  |  | 
173 to 175 | 3.9 | 27 | CC(=O)Nc1ccc2c(c1)C(CN1CCC(c3ccc(C)cc3)CC1)CC2 (stereo not drawn) [Compound 4n, 1-(6-Acetylaminoindan-1-ylmethyl)-4-(4-methylphenyl)piperidine] |  |  | 
160 to 163 | 51 | 11 | CC(=O)Nc1ccc2c(c1)C(CN1CCN(c3ccc(Cl)c(Cl)c3)CC1)CC2 (stereo not drawn) [Compound 4o, 1-(6-Acetylaminoindan-1-ylmethyl)-4-(3,4-dichlorophenyl)piperazine] |  |  | 
235 to 238 | 37 | > 100000 | O=C(Nc1ccc(F)cc1)Nc1ccc2c(c1)C(CN1CCC(c3ccc(F)cc3)CC1)CC2 (stereo not drawn) [Compound 5b, 1-[6-(4-Fluorophenyl)aminocarbonylaminoindan-1-ylmethyl]-4-(4-fluorophenyl)-piperidine] |  |  | 
175 to 180 | 6.7 | 1200 | CN(C)C(=S)Nc1ccc2c(c1)C(CN1CCC(c3ccc(F)cc3)CC1)CC2 (stereo not drawn) [Compound 6b, 1-(6-Dimethylaminothiocarbonylaminoindan-1-ylmethyl)-4-(4-fluorophenyl)piperidine] |  |  | 
190 to 193 | 9.9 | 8200 | O=C(Nc1ccc2c(c1)C(CN1CCC(c3ccc(F)cc3)CC1)CC2)N1CCCC1 (stereo not drawn) [Compound 6c, 4-(4-fluorophenyl)-1-[6-(1-pyrrolidinyl)carbonylaminoindan-1-ylmethyl]piperidine] |  |  | 
 | 3.5 | 340 | O=C1CCCN1c1ccc2c(c1)C(CN1CCC(c3ccc(F)cc3)CC1)CC2 (stereo not drawn) [Compound 12a, 4-(4-Fluorophenyl)-1-[6-(1-pyrrolidin-2-onyl)indan-1-ylmethyl]piperidine] |  |  | 
 | 1.6 | 170 | CNc1ccc2c(c1)C(CN1CCC(c3ccc(F)cc3)CC1)CC2 (stereo not drawn) [Compound 16a, 4-(4-Fluorophenyl)-1-(6-methylaminoindan-1-ylmethyl)piperidine] |  |  | 
